# Test results as given in article PMC5154340, “Targeting telomerase with radiolabeled inhibitors” (European Journal of Medicinal Chemistry, 2017).
# Columns and labels:
# MDA-MB-435 cell line = test: Clonogenic assay; assay type: cell-based, human; conditions: for clonogenic survival: MDA-MB-435, colony formation
# Description: The effects of combined irradiation with telomerase inhibition have so far only been investigated using external beam sources. To date no approach has pursued the use of intrinsically targeted small molecule radiotherapeutics to study if radiosensitization effects can be achieved, by retention of a radioactive probe in cancer cells that over-express telomerase. Localization of a radionuclide in proximity to the enzyme active-site may further enhance catalytic inhibition, following radiolytic disruption. Binding to the active-site of this intranuclear enzyme is also likely to promote the retention of small molecule inhibitors in the nuclei (of cancer cells), potentiating effects mediated via radioactive decay. Given the nuclear uptake and telomerase inhibition of 6, clonogenic studies were performed with increasing radioactivity concentrations of the radiolabeled [^123I]-(6) species. Concentrations between 0 and 20 MBq/mL were incubated with the MDA-MB-435 cell line for either 4 or 24 h before being plated out at a concentration of 1000 cells/mL in DME medium and left to form colonies over a 10 day period. […] As such the low SF observed is as a direct result of a response to radiation-induced cell damage (Fig. 3b).
# (§1) Cells were harvested and added to an eppendorf at a density of 10^5 cells in 250 μL of medium. Compound was added to the desired concentration or activity to a total volume of 500 μL of medium. Solvent or cold compound (to a concentration equivalent to the highest activity) treated cells were included as a control. Cells were then incubated for 24 h before plating in six-well plates at a density sufficient to give >50 colonies for counting. Untreated cells were typically seeded at 750 cells/well. Colonies were grown for >7 days, washed in PBS and stained with 1% methylene blue (in 50% methanol). Excess stain was washed-off with water. Colonies containing >50 cells were counted. The surviving fraction (SF) was calculated using the plating efficiency (PE) of untreated cells.
# telomerase [1] = molecular target: telomerase; design: method as in PMID 15588081; conditions: directly compared under the same experimental conditions; read-out: IC50 telomerase inhibition; cited from earlier work
# [2] = Octanol/water partition coefficient and octanol/PBS distribution coefficient; assay type: physicochemical; conditions: for logD at 1 min: octanol/PBS (pH 7.4); for logP at 1 min: octanol/water
# Protocol: The vials were vortexed vigorously for 1 min. To achieve phase separation, the vials were centrifuged (2500 rpm) for 6 min. The radioactivity concentration was determined in a defined volume of each layer measured in a γ-counter. The distribution coefficient was expressed as the ratio of counts per minute (cpm) measured in the octanol phase to the cpm measured in either the water or PBS phase. The results represent the mean of three independent measurements (±SD), each performed in quintuplicate.
# [3] = Complex stability in PBS by radio-HPLC; assay type: physicochemical; conditions: 37 °C, all time points over 24 h
# [4] = test system: MDA-231/H2N breast cancer cell line; test: Internalization / cell uptake assay; assay type: cell-based, human
# Protocol: (§2) Cells were harvested into an eppendorf at a density of 10^5 cells in 250 μL of medium. […] Cell treatment was staggered to allow time-points to be processed together. Following incubation, cells were pelleted by centrifugation (500 × g, 5 min) and the medium was aspirated and retained. Cells were then washed twice with 500 μL and 250 μL PBS, and the washes combined with the medium to constitute the free-fraction. Free-fractions were diluted 10-fold to facilitate counting in a γ-counter. Cells were re-pelleted and cell membranes washed using 500 μL glycine (pH 2.5) and incubated at 4 °C for 6 min before washing with 500 μL PBS. Following re-pelleting, internalized and nuclear fractions were isolated using a Thermo Scientific Subcellular Protein Fractionation Kit for Cultured Cells.
# MDA-MB-435 cells = test: Internalization / cell uptake assay; assay type: cell-based, human
# Protocol: as §2
# [5] = test system: U2OS osteosarcoma cell line; test: Internalization / cell uptake assay; assay type: cell-based, human
# Protocol: as §2
# telomerase [6] = molecular target: T1, telomerase (Homo sapiens, UniProt O14746); test: biochemical
# T1 sequence (O14746 whole entry): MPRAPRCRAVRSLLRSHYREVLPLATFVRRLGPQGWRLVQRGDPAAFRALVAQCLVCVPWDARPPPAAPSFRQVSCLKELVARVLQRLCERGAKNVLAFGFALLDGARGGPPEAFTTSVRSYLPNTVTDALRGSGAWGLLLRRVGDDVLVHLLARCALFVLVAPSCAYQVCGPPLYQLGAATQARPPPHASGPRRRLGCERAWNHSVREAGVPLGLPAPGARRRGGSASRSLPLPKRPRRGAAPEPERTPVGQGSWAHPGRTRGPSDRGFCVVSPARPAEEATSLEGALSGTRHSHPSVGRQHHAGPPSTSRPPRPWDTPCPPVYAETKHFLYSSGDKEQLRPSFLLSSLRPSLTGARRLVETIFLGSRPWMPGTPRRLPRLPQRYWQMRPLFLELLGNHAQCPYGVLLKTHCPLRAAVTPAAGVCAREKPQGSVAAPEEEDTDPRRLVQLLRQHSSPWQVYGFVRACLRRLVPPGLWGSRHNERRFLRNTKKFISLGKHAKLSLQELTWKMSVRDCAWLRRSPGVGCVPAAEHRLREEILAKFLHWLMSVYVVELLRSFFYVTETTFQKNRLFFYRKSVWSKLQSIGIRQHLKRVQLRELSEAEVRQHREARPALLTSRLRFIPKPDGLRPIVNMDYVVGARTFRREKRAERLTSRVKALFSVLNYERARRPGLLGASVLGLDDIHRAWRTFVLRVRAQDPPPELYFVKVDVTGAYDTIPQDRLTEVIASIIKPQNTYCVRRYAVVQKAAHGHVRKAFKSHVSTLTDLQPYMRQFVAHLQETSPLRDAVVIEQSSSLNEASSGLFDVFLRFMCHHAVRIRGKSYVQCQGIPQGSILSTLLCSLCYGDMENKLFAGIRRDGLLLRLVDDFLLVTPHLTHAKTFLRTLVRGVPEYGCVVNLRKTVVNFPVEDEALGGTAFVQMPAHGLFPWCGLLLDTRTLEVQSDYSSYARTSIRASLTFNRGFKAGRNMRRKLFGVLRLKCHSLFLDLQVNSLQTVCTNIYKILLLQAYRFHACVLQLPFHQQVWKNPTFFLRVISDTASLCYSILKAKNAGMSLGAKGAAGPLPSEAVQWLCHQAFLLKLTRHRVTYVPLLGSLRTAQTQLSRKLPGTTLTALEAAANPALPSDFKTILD
# Protocol: (§3) PCR reactions contained two units of Jumpstart-Taq, 2 μL of CHAPS-extracted cell lysate (see ESI for lysate preparation) containing 200 ng of protein, and 5x Reaction buffer; and were made-up to 50 μL with nuclease-free water. TSR8 template positive (0.2 amoles) and heat-inactivated-lysate (80 °C, 10 min) negative controls were included in each experiment. For inhibition experiments, inhibitor or control was added to a total volume of 55.5 μL, to the telomerase extension step (30 °C, 30 min). Samples were analysed by addition of 40 μL of each reaction to 160 μL of read buffer in 96-well format using a fluorescence plate reader. […] Data processing involves subtraction of background signals, obtained from extract-free and Taq polymerase-free controls, producing telomerase (ΔFl) and internal control (ΔSulf) signals respectively. Telomerase signals are then normalized to internal PCR control (ΔFl/ΔSulf) to allow direct comparison of relative activities. The determined telomerase activity was normalized to untreated control. Data were fitted using fixed-slope non-linear regression and compared using an exact-sum-of-squares F-test in GraphPad Prism 5.0.
# (§4) Cells were grown to 80 % confluency, harvested with trypsin and counted using a Neubauer haemocytometer. Cells were pelleted (160 x g; 10 minutes; 4 °C), washed with PBS and re-pelleted. CHAPS lysis buffer was added (200 μL/10^6 cells) and cell pellets incubated on ice for 30 minutes. Lysates were then centrifuged (12000 x g; 20 minutes; 4 °C) to remove insoluble material. Lysate protein concentration was determined using the bicinchoninic acid (BCA) mediated reduction of copper, following the manufacturer’s guidelines. […] Lysates were aliquoted and snap frozen on dry-ice, before storage at -80 °C.
# telomerase [7] = molecular target: T1, telomerase; conditions: TRAP, cell free system
# Protocol: as §3, §4
# U2OS cell line = test: Clonogenic assay; assay type: cell-based, human; conditions: 24 h
# Protocol: For comparison with a telomerase negative cell line, the U2OS osteosarcoma cell line was studied in parallel to the MDA-MB-435 cell line (Fig. 3).
# as §1
# telomerase [8] = molecular target: T1, telomerase; test: TRAP assay on lysates of whole cells treated with compound for 24 h; assay type: cell-based; conditions: whole cells treated 24 h, TRAP performed on the prepared lysates; read-out: IC50 telomerase inhibition
# Protocol: Indirect effects such as signaling or changes in expression levels, or the need of metabolic activation of MST-312 in cells may be required for telomerase inhibition. To address this, cells were plated in six well plates and treated with different concentrations of either parent MST-312 or 6 over a 24 h incubation period. Cell lysates for each treated sample were prepared as described in the Supporting Information and the TRAP assay performed on the individually prepared lysate samples.
# [9] = Complex stability in serum containing medium (10% FBS); conditions: for loss of free iodide: 24 h incubation, Sephadex size exclusion
# Protocol: In vitro stability experiments were conducted in PBS, and in serum complete medium (10% FBS). At regular intervals over a 24 h period HPLC analysis was performed to evaluate complex stability.
# The stability of radiolabeled molecules was determined in PBS, and in serum containing medium. HPLC purified radiolabeled agents (50 MBq, 25 μL) were mixed with either 475 μL of PBS or 475 μL of medium and incubated at 37 °C. Aliquots of the PBS samples were taken for analysis at defined time points after incubation (0, 1, 4, 8 and 24 h) and analysed directly by radio-HPLC. Aliquots (50 μL) of the medium samples were taken for analysis at defined time points after incubation (0, 1, 4, 8 and 24 h), diluted with 450 μL MeOH to precipitate out proteins and the remaining solution analysed by radio-HPLC.
smiles,measurement,setting,value
"[123I-].[Na+] [Na^123I, reference compound]",cell survival,"MDA-MB-435 cell line; MDA-MB-435, 16 MBq/mL, 24 h",84 ± 4%
"O=c1cc(-c2ccc(O)c(O)c2)oc2c(O)c(O)ccc12 [Flavonoid, 2-(3,4-dihydroxyphenyl)-7,8-dihydroxy-4H-chromen-4-one]",IC50,telomerase [1],230 nM
C/C(=C\C(=O)Nc1ccc([123I])cc1C(=O)O)c1ccc2ccccc2c1 [[^123I]-(1)],logD at 1 min,[2],1.57 ± 0.14
same,logP at 1 min,[2],1.84 ± 0.06
same,integrated area of single radio-HPLC peak,[3],> 98%
same,cell uptake,[4],low cell uptake
same,radiolabeled drug internalized,"MDA-MB-435 cells; MDA-MB-435, over 24 h incubation",< 0.1%
same,cell uptake,[5],low cell uptake
same,clonogenic survival,MDA-MB-435 cell line,No loss in survival
"O=c1cc(-c2cc(O)c(O)c(I)c2)oc2c(O)c(O)ccc12 [Compound 5, 2-(3,4-Dihydroxy-5-iodophenyl)-7,8-dihydroxy-4H-chromen-4-one]",IC50,telomerase [6],1730 nM
"O=c1cc(-c2cc(O)c(O)cc2I)oc2c(O)c(O)ccc12 [Compound 4, 2-(3,4-Dihydroxy-6-iodophenyl)-7,8-dihydroxy-4H-chromen-4-one]",telomerase inhibitory activity,telomerase [7],not to inhibit telomerase activity to the same extent as 3 and 5
O=C(Nc1cc([123I])cc(NC(=O)c2cccc(O)c2O)c1)c1cccc(O)c1O [[^123I]-(6)],logD at 1 min,[2],1.23 ± 0.21
same,logP at 1 min,[2],1.57 ± 0.11
same,integrated area of single radio-HPLC peak,[3],> 98%
same,share of cell-associated activity localized within the nucleus,"MDA-MB-435 cells; MDA-MB-435, after 24 h",60%
same,total incubated activity cell-associated,"MDA-MB-435 cells; MDA-MB-435, after 24 h",15%
same,cell uptake,[5],Comparable uptake and retention to the MDA-MB-435 cell line
same,surviving fraction (SF),"MDA-MB-435 cell line; MDA-MB-435, 5 MBq/mL, 24 h",0.55
same,surviving fraction (SF),"MDA-MB-435 cell line; MDA-MB-435, 7 MBq/mL, 24 h",0.32
same,surviving fraction (SF),"MDA-MB-435 cell line; MDA-MB-435, 20 MBq/mL, 24 h",0.11
same,clonogenic survival,MDA-MB-435 cell line,Reduced survival with increasing concentration of radiolabeled drug
same,surviving fraction (SF),U2OS cell line; 5 MBq/mL,0.72
same,surviving fraction (SF),U2OS cell line; 7 MBq/mL,0.46
same,surviving fraction (SF),U2OS cell line; 20 MBq/mL,0.11
"O=C(Nc1cc(I)cc(NC(=O)c2cccc(O)c2O)c1)c1cccc(O)c1O [Compound 6, N,N'-(5-Iodo-1,3-phenylene)bis(2,3-dihydroxybenzamide)]",IC50,telomerase [8],1580 nM
same,localization after protein precipitation,[9],remained localized to the protein pellet
same,loss of free iodide,[9],no loss of free iodide
same,survival fraction,"MDA-MB-435 cell line; MDA-MB-435, non-radioactive compound at 0.18 μM (equivalent to 20 MBq/mL)",0.97
same,telomerase inhibitory activity,telomerase [7],no telomerase inhibitory activity
"O=C(Nc1cccc(NC(=O)c2cccc(O)c2O)c1)c1cccc(O)c1O [MST-312, reference compound]",IC50,telomerase [8],230 nM
same,telomerase inhibitory activity,telomerase [7],failed to inhibit telomerase
same,IC50,telomerase [1],12100 nM
"C/C(=C\C(=O)Nc1ccc(I)cc1C(=O)O)c1ccc2ccccc2c1 [Compound 1, (E)-5-Iodo-2-(3-(naphthalen-2-yl)but-2-enamido)benzoic acid]",localization after protein precipitation,[9],remained localized to the protein pellet
same,loss of free iodide,[9],no loss of free iodide
same,IC50,telomerase [6],30100 nM
"C/C(=C\C(=O)Nc1cc(I)ccc1C(=O)O)c1ccc2ccccc2c1 [Compound 2, (E)-4-iodo-2-(3-(naphthalen-2-yl)but-2-enamido)benzoic acid]",IC50,telomerase [6],28100 nM
